pIC50: −log10 of the molar value. Bounds are passed on as bounds.

Sequence of Nonstructural protein 3 (A0A024AXB9 whole entry): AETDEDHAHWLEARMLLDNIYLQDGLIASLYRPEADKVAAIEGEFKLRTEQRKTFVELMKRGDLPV

This assay addresses Nonstructural protein 3 (Zika virus, UniProt A0A024AXB9). Nature of the assay: Functional biochemical assay to identify treatments for viral infectious disease that targets Zika NS2B-NS3 protease. Utilizing a direct enzyme activity measurement method, reading the fluorescence intensity is used to characterize the relative potency of inhibitors as IC50. Details: species or system PRVABC59.
As a reminder, the pIC50 is −log10 of the IC50, conventionally taken in molar units. A higher pIC50 goes with a low IC50. The molecule `NCCCc1cccc(NC(=O)c2cc(Cl)cc(NC(=O)OCc3ccccc3)c2)n1` gave a pIC50 of 4.72. The value for `CC(=O)N1CCC([C@H](NC(=O)OCc2ccccc2)C(=O)Nc2cccc(CN)c2)CC1` was < 4.00; that for `N#Cc1csc(CN2CCC([C@H](NC(=O)OCc3ccccc3)C(=O)Nc3cccc(CN)c3)CC2)c1` was < 4.00; that for `FC(F)(F)Oc1cc(Cl)cc2c(CN3CCC(c4cscn4)CC3)c[nH]c12` was < 4.00.

Consider `NCc1cccc(NC(=O)c2cc(Cl)cc(OC3CC3)c2)c1`, for which the pIC50 was 4.69.

Consider `NCc1cccc(NC(=O)c2cc(Cl)cc(N3CCCC3)c2)c1`, for which the pIC50 was 4.92. This pIC50 is 0.23 log units higher than that of the molecule before. As for `CCCCSc1ccc(Cl)cc1C(=O)Nc1cccc(CN)c1`, the pIC50 is 4.65.

For the molecule `CC(=O)N[C@H](C(=O)N[C@H]1C(=O)O[C@H]1C)c1ccc(OCc2ccccc2)cc1`, the pIC50 was < 4.00.

Turning to `Cc1ncc(C(=O)Nc2cccc(CN)c2)cc1NC(=O)OCc1ccccc1`, the pIC50 is < 4.00. `NCc1cccc(NC(=O)c2cc(NC(=O)OCc3ccccc3)cc3c2OCCO3)c1` gave a pIC50 of 4.05. As for `O=C(Nc1cc(Cl)cc(C(=O)NCC2(CO)CCNCC2)c1)OCc1ccccc1`, the pIC50 was < 4.00. As to `NCc1cccc(NC(=O)[C@H](NC(=O)OCc2ccccc2)C2CCN(C(=O)C3CCOCC3)CC2)c1`, the pIC50 is < 4.00. With `CNCCS(=O)(=O)N1CCC([C@H](NC(=O)OCc2ccccc2)C(=O)Nc2cccc(CN)c2)CC1` the figure was < 4.00; with `O=C(Nc1cc(Cl)cc(C(=O)Nc2ccc3c(c2)[C@H]2CC[C@H]3N2)c1)OCc1ccccc1`, 4.62.

In turn, `CSc1cc(F)c(C(=O)Nc2cccc(CN)c2)cc1NC(=O)OCc1ccccc1` gave a pIC50 of 4.08.

Take `CCOCC(=O)N1CCC([C@H](NC(=O)OCc2ccccc2)C(=O)Nc2cccc(CN)c2)CC1`: the pIC50 is < 4.00.

In turn, `O=C1COc2c(cccc2N2CCN(Cc3c[nH]c4ccccc34)CC2)N1` had a pIC50 of 4.16.

For `NCc1cccc(NC(=O)[C@H](NC(=O)OCc2ccccc2)C2CCN(C3CCCC3)CC2)c1`, the pIC50 is < 4.00. With `CCN(C)S(=O)(=O)N1CCC([C@H](NC(=O)OCc2ccccc2)C(=O)Nc2cccc(CN)c2)CC1` the figure was < 4.00; with `NCc1cccc(NC(=O)c2cc(NC(=O)OCc3ccccc3)cc(C(N)=O)c2)c1`, < 4.00; with `CC(C)CC(=O)N1CCC([C@H](NC(=O)OCc2ccccc2)C(=O)Nc2cccc(CN)c2)CC1`, < 4.00. Regarding `NCc1cccc(NC(=O)c2cc(Cl)ccc2-n2cncn2)c1`, the pIC50 was 4.75. As to `COCCOc1ccc(Cl)cc1C(=O)Nc1cccc(CN)c1`, the pIC50 was 4.11. For the molecule `CC(C)N1CCC([C@H](NC(=O)OCc2ccccc2)C(=O)Nc2cccc(CN)c2)CC1`, the negative logarithm of the IC50 (pIC50) is < 4.00. On to `NCc1cccc(NC(=O)[C@H](NC(=O)OCc2ccccc2)C2CCN(S(=O)(=O)c3ccccc3)CC2)c1`, for which the pIC50 was < 4.00. With `NCCc1nsc(NC(=O)c2cc(Cl)cc(NC(=O)OCc3ccccc3)c2)n1` the figure was < 4.00; with `CN(C)Cc1cccc(C(=O)Nc2cccc(CN)c2)c1`, 4.62. The value for `NCc1nc(CNC(=O)c2cc(Cl)cc(NC(=O)OCc3ccccc3)c2)cs1` was < 4.00; that for `Cc1nnc(CN2CCC([C@H](NC(=O)OCc3ccccc3)C(=O)Nc3cccc(CN)c3)CC2)s1` was < 4.00.

Take `NCc1cccc(CS(=O)(=O)c2cc(Cl)cc(NC(=O)OCc3ccccc3)c2)c1`: the pIC50 was < 4.00. With `COCc1cc(Cl)cc(C(=O)Nc2cccc(CN)c2)c1` the figure was 4.57; with `Cn1nc(CCN)nc1NC(=O)c1cc(Cl)cc(NC(=O)OCc2ccccc2)c1`, 4.50; with `Cc1nccn1CCOc1cccc([C@H](NC(=O)OCc2ccccc2)C(=O)Nc2cccc(CN)c2)c1`, < 4.00.

Regarding `NCc1cccc(NC(=O)[C@H](NC(=O)OCc2ccccc2)c2cccc(OCc3ccncc3)c2)c1`, the pIC50 is < 4.00. With `Cc1cc(CN)cc(NC(=O)c2cc(Cl)cc(NC(=O)OCc3ccccc3)c2)c1` the figure was 5.29; with `C[C@H](N)c1cccc(NC(=O)c2cc(Cl)cc(NC(=O)OCc3ccccc3)c2)c1`, 4.86; with `NCc1cccc(NC(=O)[C@H](NC(=O)OCc2ccccc2)C2CCN(Cc3ccccc3)CC2)c1`, < 4.00.

As to `CCN1CC[C@H](COc2cccc([C@H](NC(=O)OCc3ccccc3)C(=O)Nc3cccc(CN)c3)c2)C1`, the pIC50 was < 4.00. For `NC12CCC(CNC(=O)c3cc(Cl)cc(NC(=O)OCc4ccccc4)c3)(CC1)OC2`, the pIC50 was 4.48. In the case of `Clc1ccc(-c2cc(CN3CCC(c4cscn4)CC3)[nH]n2)cc1`, the pIC50 was < 4.00. `NCc1cccc(NC(=O)c2cc(Cl)cc(F)c2F)c1` had a pIC50 of 4.23. `CCS(=O)(=O)c1ccc(Cl)cc1C(=O)Nc1cccc(CN)c1` gave a pIC50 of 4.09. With `Cn1cc(C(=O)N2CCC([C@H](NC(=O)OCc3ccccc3)C(=O)Nc3cccc(CN)c3)CC2)cn1` the figure was < 4.00; with `Cn1nc([C@@H]2CCCN2)nc1NC(=O)c1cc(Cl)cc(NC(=O)OCc2ccccc2)c1`, < 4.00; with `CC(C)(C#N)CS(=O)(=O)N1CCC([C@H](NC(=O)OCc2ccccc2)C(=O)Nc2cccc(CN)c2)CC1`, < 4.00. `NCCCc1ccnc(NC(=O)c2cc(Cl)cc(NC(=O)OCc3ccccc3)c2)c1` gave a pIC50 of 4.73. With `NCc1cccc(NC(=O)c2cc(NC(=O)OCc3ccccc3)cc(C(F)(F)F)c2F)c1` the figure was < 4.00. `NCc1cccc(NC(=O)[C@H](NC(=O)OCc2ccccc2)c2ccc(OCc3ccncn3)cc2)c1` had a pIC50 of 4.08. As to `Cn1ccnc1COc1cccc([C@H](NC(=O)OCc2ccccc2)C(=O)Nc2cccc(CN)c2)c1`, the pIC50 was < 4.00. With `O=c1ccc(N2CCN(Cc3c[nH]c4ccccc34)CC2)n[nH]1` the figure was < 4.00.

`NCc1cccc(NC(=O)c2cc(Cl)cc(C3CC3)c2)c1` had a pIC50 of 5.08. Molecule `NCc1cccc(NC(=O)c2cc3c(c(NC(=O)OCc4ccccc4)c2)OCC3)c1` had a pIC50 of 4.11. This pIC50 is 0.97 log units lower than that of the molecule before. In turn, `NCc1cccc(NC(=O)c2cc(Cl)cc(N3CCCC3=O)c2)c1` gave a pIC50 of 4.94. This pIC50 is 0.83 log units higher than that of the molecule before. Regarding `NCc1cccc(NC(=O)[C@@H]2CCC[C@@H](NC(=O)OCc3ccccc3)C2)c1`, the pIC50 was < 4.00. With `Cc1c(CN)cccc1NC(=O)c1cc(Cl)cc(NC(=O)OCc2ccccc2)c1` the figure was 4.35; with `O=C(Nc1cc(Cl)cc(C(=O)NCc2n[nH]c3c2CNCC3)c1)OCc1ccccc1`, < 4.00; with `CC(C)N1C(=O)C[C@H](C(=O)Nc2cccc(CN)c2)[C@H]1c1ccc(Cl)c(F)c1`, < 4.00. In turn, `NCc1cccc(NC(=O)c2cc(Cl)cc3c2OCCNC3)c1` gave a pIC50 of 4.34. With `c1cnc2[nH]cc(C3CCN(Cc4c[nH]c5ccncc45)CC3)c2c1` the figure was 4.13.

On to `Oc1cc(N2CCN(Cc3c[nH]c4ccccc34)CC2)ccn1`, for which the pIC50 is < 4.00. `O=C(Nc1cc(Cl)cc(C(=O)Nc2cccc3c2CNC3)c1)OCc1ccccc1` had a pIC50 of 4.12. With `NCc1cccc(NC(=O)[C@H](NC(=O)OCc2ccccc2)c2ccc(OCCc3cscn3)cc2)c1` the figure was 4.10. Regarding `CN(C)Cc1cccc(NC(=O)[C@H](NC(=O)OCc2ccccc2)c2ccc(OCc3ccccc3)cc2)c1`, the pIC50 is < 4.00. With `NCc1cccc(NC(=O)[C@H](NC(=O)OCc2ccccc2)c2cccc(OC[C@H]3COCCO3)c2)c1`, the pIC50 was < 4.00. With `NCc1ccc(O)c(NC(=O)c2cc(Cl)cc(NC(=O)OCc3ccccc3)c2)c1` the figure was 4.74; with `C#Cc1cc(NC(=O)OCc2ccccc2)cc(C(=O)Nc2cccc(CN)c2)c1`, 4.44; with `c1nc(C2CCN(Cc3cc(C4CCOCC4)[nH]n3)CC2)cs1`, < 4.00. For the molecule `COc1cc(NC(=O)OCc2ccccc2)cc(C(=O)Nc2cccc(CN)c2)c1OC`, the pIC50 is < 4.00. `CN(C)CCOc1ccc(Cl)cc1C(=O)Nc1cccc(CN)c1` had a pIC50 of 4.59. With `N#Cc1cccc2[nH]cc(CN3CCC(c4cscn4)CC3)c12` the figure was < 4.00; with `O=C1O[C@H]2CCN(Cc3ccc(OCc4ccccc4)cc3)C[C@H]12`, < 4.00. `O=C1Nc2ncccc2C[C@H]1NCc1n[nH]c2ccccc12`: the pIC50 is < 4.00. The value for `Cc1ccc(NC(=O)c2cc(Cl)cc(NC(=O)OCc3ccccc3)c2)cc1CN` was 4.96; that for `CCCCS(=O)(=O)N1CCC([C@H](NC(=O)OCc2ccccc2)C(=O)Nc2cccc(CN)c2)CC1` was < 4.00. The value for `c1cnc2[nH]cc(C3CCN(Cc4c[nH]c5cnccc45)CC3)c2c1` was < 4.00; that for `CSc1cc(Cl)cc(C(=O)Nc2cccc(CN)c2)c1` was 4.98; that for `CN1C(=O)C[C@H](C(=O)Nc2cccc(CN)c2)[C@H]1c1ccc(Cl)c(Cl)c1` was < 4.00. With `c1cncc(-c2cc(CN3CCC(c4cscn4)CC3)n[nH]2)c1` the figure was < 4.00. `NCc1cccc(S(=O)(=O)Cc2cc(Cl)cc(NC(=O)OCc3ccccc3)c2)c1` gave a negative-log IC50 (pIC50) of 4.03. Take `Cc1ncc(NC(=O)OCc2ccccc2)cc1C(=O)Nc1cccc(CN)c1`: the pIC50 was < 4.00. Consider `NCc1cn(CCNC(=O)c2cc(Cl)cc(NC(=O)OCc3ccccc3)c2)nn1`, for which the pIC50 was < 4.00.

As to `NCc1cccc(NC(=O)c2cc(Cl)ccc2NS(=O)(=O)c2ccccc2)c1`, the pIC50 was < 4.00. With `Cc1ocnc1COc1cccc([C@H](NC(=O)OCc2ccccc2)C(=O)Nc2cccc(CN)c2)c1`, the pIC50 was < 4.00. For the molecule `NC[C@@H]1CN(c2cc(N3CC[C@H](N)C3)cc3c2COB3O)C(=O)O1`, the pIC50 is 4.14. As for `NCc1cccc(NC(=O)c2cc(Cl)ccc2OCC(F)(F)F)c1`, the pIC50 was 4.26. In turn, `N#Cc1cccc(N2CCN(Cc3c[nH]c4ccccc34)CC2)c1` gave a negative logarithm of the IC50 (pIC50) of 4.07. With `NCc1cccc(NC(=O)[C@H](NC(=O)OCc2ccccc2)C2CCN(CCc3ccccc3)CC2)c1` the figure was < 4.00; with `Cn1ncc(CN2CCC([C@H](NC(=O)OCc3ccccc3)C(=O)Nc3cccc(CN)c3)CC2)n1`, < 4.00.

`NCc1cccc(NC(=O)c2cc(Cl)cc3c2CCC3)c1` showed a pIC50 of 5.22.

Source of the values: ChEMBL document CHEMBL5604062, “ASAP - ZIKV NS2B-NS3 protease fluorescence dose response” (2024).
